Laboratory results as given in paper PMC9248268 (Biochemical pharmacology, 2021).

How the values were obtained:
[1] = molecular target: T1, recombinant human PTPRD phosphatase (Homo sapiens, UniProt P23468); assay: inhibition of pNPP hydrolysis by recombinant PTPRD phosphatase
T1 sequence (P23468 1357-1612 limits assumed): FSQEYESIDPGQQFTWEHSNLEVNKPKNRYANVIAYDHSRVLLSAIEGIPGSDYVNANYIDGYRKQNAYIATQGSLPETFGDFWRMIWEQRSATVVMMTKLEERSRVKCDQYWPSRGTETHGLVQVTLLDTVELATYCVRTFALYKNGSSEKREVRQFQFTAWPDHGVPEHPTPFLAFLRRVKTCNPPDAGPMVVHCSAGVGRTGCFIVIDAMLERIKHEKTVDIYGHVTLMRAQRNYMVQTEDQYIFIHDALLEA

PTPRJ phosphatase = molecular target: T2, PTPRJ phosphatase (Homo sapiens, UniProt Q12913); assay: inhibition of pNPP hydrolysis by recombinant PTPRJ phosphatase; type: biochemical
T2 sequence (Q12913 997-1337 limits assumed): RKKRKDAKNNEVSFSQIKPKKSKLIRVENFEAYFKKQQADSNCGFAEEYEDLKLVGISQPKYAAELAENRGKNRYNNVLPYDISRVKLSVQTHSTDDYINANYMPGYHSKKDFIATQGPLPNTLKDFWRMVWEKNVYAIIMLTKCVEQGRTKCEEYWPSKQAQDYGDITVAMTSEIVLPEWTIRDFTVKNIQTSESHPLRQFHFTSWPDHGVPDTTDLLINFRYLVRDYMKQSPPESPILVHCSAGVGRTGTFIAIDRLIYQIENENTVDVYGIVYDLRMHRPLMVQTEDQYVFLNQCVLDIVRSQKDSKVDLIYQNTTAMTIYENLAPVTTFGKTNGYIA

[2] = molecular target: T1, recombinant human PTPRD phosphatase; details: cited from earlier work
PTPRS phosphatase [3] = molecular target: T3, PTPRS phosphatase (Homo sapiens, UniProt Q13332); details: cited from earlier work
T3 sequence (Q13332 1393-1648 limits assumed): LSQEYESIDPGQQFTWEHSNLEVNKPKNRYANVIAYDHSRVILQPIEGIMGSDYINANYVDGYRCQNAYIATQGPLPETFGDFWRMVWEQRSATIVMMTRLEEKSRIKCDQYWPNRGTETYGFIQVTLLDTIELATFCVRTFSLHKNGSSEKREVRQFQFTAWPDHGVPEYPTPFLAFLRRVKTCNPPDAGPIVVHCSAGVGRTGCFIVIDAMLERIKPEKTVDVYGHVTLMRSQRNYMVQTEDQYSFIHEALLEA

PTPRF phosphatase [4] = details: cited from earlier work
[5] = acute ascending doses or 2-week repeated doses up to 20 mg/kg; cited from earlier work
[6] = molecular target: T4, PTPN1 (PTP1B) phosphatase (Homo sapiens, UniProt P18031); assay: inhibition of pNPP hydrolysis by recombinant PTPN1; type: biochemical
T4 sequence (P18031 1-435): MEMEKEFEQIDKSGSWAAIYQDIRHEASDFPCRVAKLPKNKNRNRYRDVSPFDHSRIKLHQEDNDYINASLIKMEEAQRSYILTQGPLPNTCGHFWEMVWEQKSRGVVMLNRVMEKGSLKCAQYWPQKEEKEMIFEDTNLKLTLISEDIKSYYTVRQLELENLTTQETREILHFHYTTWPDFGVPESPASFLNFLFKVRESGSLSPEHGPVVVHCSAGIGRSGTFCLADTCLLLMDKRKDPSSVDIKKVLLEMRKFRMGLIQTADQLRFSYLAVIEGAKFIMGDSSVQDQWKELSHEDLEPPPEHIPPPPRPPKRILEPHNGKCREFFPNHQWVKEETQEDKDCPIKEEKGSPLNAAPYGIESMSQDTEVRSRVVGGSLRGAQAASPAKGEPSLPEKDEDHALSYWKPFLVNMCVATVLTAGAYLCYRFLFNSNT

PTPRS phosphatase [7] = molecular target: T3, PTPRS phosphatase; assay: inhibition of pNPP hydrolysis by recombinant PTPRS phosphatase; type: biochemical; details: relative to 7-BIA
PTPRF phosphatase [8] = assay: inhibition of pNPP hydrolysis by recombinant PTPRF phosphatase; type: biochemical; details: relative to 7-BIA
[9] = system: other protein tyrosine phosphatases screened; assay: screen at other protein tyrosine phosphatases; type: biochemical
[10] = system: sites of action (and side effects) of most marketed drugs; assay: EUROFINS assays for sites of action of marketed drugs; details: read-out: EC50 at EUROFINS sites of action of marketed drugs; any of these sites
[11] = absorption study, plasma levels in rats; type: in vivo; details: male, Sprague Dawley, rat, 10 mg/kg
[12] = oral tolerability study in mice; parameters: species or system wildtype C57BL/6J or PTPRD knockout mice; details: mouse, in vivo

For `CCCCOc1cc2c(c(C=O)c1OCCCC)CC(O)OC2=O` (centres unmarked) [compound 24], the “activity at PTPRD (in words)” value [1] was “activity was lost”.

In the case of `CCCCOc1cc2c(c(C=O)c1OC)CC(O)OC2=O` (centres unmarked) [compound 1, 7-butoxy illudalic acid analog], the “potency at PTPRJ (in words)” value (PTPRJ phosphatase) is given as “moderate potencies”, the “activity at PTPRD phosphatase (in words)” value [2] is given as “active” and the “potency of inhibition of PTPRD phosphatase dephosphorylation of p-NPP (in words)” value [2] is given as “good potency”. For the same compound, the “activity at PTPRS phosphatase (in words)” value (PTPRS phosphatase [3]) was “active”, the “activity at PTPRF phosphatase (in words)” value (PTPRF phosphatase [4]) was “active” and the “toxicities in mice (in words)” value [5] was “no apparent toxicities”.

For `CCCCOc1cc2c(c(C=O)c1OCC)CC(O)OC2=O` (centres unmarked) [compound 23], the “activity at PTPRD (in words)” value [1] was “activity was lost”.

For `COc1c(OCc2ccc(Oc3ccccc3)cc2)cc2c(c1C=O)CC(O)OC2=O` (centres unmarked) [compound 40, 3-Hydroxy-6-methoxy-1-oxo-7-((4-phenoxybenzyl)oxy)isochromane-5-carbaldehyde], the “potency in inhibiting PTPN1/PTP1B (in words)” value [6] was “relatively high potency”.

With `COc1c(OCC2CCCC2)cc2c(c1C=O)CC(O)OC2=O` (centres unmarked) [compound 58, 7-Cyclopentylmethoxy-3-hydroxy-6-methoxy-1-oxo-isochroman-5-carbaldehyde] the “greater selectivity for PTPRD vs PTPRS than 7-BIA” value (PTPRS phosphatase [7]) was 1.6 fold, the “greater selectivity for PTPRD vs PTPRF than 7-BIA” value (PTPRF phosphatase [8]) was 1.4 fold and the “greater selectivity for PTPRD vs PTPRJ than 7-BIA” value (PTPRJ phosphatase; relative to 7-BIA) was 3.5 fold. The “greater selectivity for PTPRD vs PTPN1/PTP1B than 7-BIA” value ([6]; relative to 7-BIA) was 1.8 fold, the “potency at other protein tyrosine phosphatases screened (in words)” value [9] was “no substantial potency” and the EC50 [10] was ≥ 100 µM. For the same compound, the half-life [11] was ~50 min, the concentration at 30 min ([11]; ip) was 577 ng/g and the concentration at 120 min ([11]; ip) was 10.3 ng/g. The concentration at 240 min ([11]; ip) was 1.84 ng/g, the concentration at 5 min ([11]; iv) was 24600 ng/g and the concentration at 30 min ([11]; iv) was 92.6 ng/g. For the same compound, the concentration at 240 min ([11]; iv) was 1.03 ng/g, the concentration at 30 min ([11]; po) was 82.4 ng/g and the concentration at 120 min ([11]; po) was 24.2 ng/g. The concentration at 240 min ([11]; po) was 4.62 ng/g, the weight lost ([12]; 200 mg/kg) was 1.3 g and the weight lost ([12]; 400 mg/kg) was 3.4 g. The weight lost ([12]; 600 mg/kg) was 1.1 g and the weight lost ([12]; 1000 mg/kg) was 9 g.

With `CCCCOc1cc2c(=O)occc2c(C=O)c1OC` [compound 22] the “activity at PTPRD (in words)” value [1] was “activity was lost”.

With `COc1ccccc1COc1cc2c(c(C=O)c1OC)CC(O)OC2=O` (centres unmarked) [compound 31] the “activity at PTPRD (in words)” value [1] was “no improvement in PTPRD activity”.

In the case of `COc1cccc(COc2cc3c(c(C=O)c2OC)CC(O)OC3=O)c1` (centres unmarked) [compound 30, 3-Hydroxy-6-methoxy-7-((3-methoxybenzyl)oxy)-1-oxoisochromane-5-carbaldehyde], the “activity at PTPRD (in words)” value [1] is reported as “no improvement in PTPRD activity”.
